Measurements taken from ChEMBL document CHEMBL4622975 (J Med Chem, 2020).
Active and inactive are the calls of the source. No cut-off for these calls is given here.

How the values were obtained:
[1] = target: T1, Phosphotyrosine protein phosphatase (Mycobacterium tuberculosis, UniProt A0A045ISB3)
T1 sequence (A0A045ISB3 whole entry): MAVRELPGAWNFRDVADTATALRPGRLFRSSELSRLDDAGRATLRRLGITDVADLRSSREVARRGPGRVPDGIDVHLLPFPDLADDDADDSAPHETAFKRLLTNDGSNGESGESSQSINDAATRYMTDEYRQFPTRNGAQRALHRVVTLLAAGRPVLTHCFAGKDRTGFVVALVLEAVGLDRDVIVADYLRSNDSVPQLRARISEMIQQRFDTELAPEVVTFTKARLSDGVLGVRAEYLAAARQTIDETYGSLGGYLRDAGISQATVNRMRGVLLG
Description: Inhibition of Mycobacterium tuberculosis PTPB expressed in Escherichia coli BL21 (DE3) using p-nitrophenyl phosphate as substrate measured after 30 mins by UV-vis spectrophotometric method

[2] = target: T2, Tyrosine-protein phosphatase non-receptor type 1 (Homo sapiens, UniProt P18031)
T2 sequence (P18031 whole entry): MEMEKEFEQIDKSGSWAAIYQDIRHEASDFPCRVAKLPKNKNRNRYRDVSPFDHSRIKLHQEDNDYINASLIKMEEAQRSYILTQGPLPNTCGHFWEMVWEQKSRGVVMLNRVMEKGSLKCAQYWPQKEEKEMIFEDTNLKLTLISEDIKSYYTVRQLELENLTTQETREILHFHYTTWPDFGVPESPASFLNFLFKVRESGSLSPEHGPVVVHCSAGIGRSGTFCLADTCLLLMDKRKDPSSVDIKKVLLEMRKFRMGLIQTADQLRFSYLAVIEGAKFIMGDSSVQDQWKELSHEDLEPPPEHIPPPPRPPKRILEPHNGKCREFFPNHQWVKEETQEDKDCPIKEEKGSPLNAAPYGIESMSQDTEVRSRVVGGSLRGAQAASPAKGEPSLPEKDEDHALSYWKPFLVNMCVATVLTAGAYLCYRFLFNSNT

[3] = target: T3, Tyrosine-protein phosphatase non-receptor type 11 (Homo sapiens, UniProt Q06124)
T3 sequence (Q06124 whole entry): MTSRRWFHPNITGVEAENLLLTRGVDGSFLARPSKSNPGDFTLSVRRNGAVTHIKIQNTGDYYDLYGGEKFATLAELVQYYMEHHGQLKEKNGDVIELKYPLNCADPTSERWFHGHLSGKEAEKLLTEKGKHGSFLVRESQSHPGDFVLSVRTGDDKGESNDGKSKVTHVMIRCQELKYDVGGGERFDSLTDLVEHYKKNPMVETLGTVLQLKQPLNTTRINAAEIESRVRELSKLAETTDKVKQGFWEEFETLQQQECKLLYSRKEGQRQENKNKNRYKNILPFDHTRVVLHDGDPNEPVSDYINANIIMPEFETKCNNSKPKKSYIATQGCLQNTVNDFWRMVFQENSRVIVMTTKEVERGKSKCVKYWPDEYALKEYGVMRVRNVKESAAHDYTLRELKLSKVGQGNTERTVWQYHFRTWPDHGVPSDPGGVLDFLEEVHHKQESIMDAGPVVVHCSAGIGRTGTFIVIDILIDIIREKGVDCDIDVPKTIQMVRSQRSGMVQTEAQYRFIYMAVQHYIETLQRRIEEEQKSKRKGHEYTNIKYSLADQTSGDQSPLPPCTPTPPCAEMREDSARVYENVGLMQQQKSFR

[4] = target: Tyrosine-protein phosphatase non-receptor type 6 (Homo sapiens, UniProt P29350)
Sequence of Tyrosine-protein phosphatase non-receptor type 6 (P29350 whole entry): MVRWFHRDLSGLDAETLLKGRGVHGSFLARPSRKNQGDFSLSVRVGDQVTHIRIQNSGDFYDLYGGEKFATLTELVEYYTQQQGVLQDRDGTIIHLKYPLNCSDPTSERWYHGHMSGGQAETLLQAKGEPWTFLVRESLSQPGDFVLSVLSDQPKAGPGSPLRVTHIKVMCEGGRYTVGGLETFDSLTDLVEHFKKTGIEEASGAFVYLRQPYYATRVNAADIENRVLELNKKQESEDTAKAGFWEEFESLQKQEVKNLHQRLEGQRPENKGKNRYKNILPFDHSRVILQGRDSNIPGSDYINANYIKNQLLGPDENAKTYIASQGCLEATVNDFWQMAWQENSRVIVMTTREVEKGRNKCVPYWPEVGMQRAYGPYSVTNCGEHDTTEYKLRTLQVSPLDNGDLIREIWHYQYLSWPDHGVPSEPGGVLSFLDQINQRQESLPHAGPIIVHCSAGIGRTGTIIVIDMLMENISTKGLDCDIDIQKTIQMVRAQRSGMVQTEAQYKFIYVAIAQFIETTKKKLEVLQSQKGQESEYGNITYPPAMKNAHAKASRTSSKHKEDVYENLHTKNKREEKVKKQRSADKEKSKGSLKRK

[5] = Drug uptake in mouse RAW264.7 cells at 20 uM measured after 2 hrs by LC-MS analysis; type: ADME, cell-based; settings: raw264.7, 2 h
[6] = Stability in CD1 mouse pooled liver microsomes measured after 2 hrs in absence of NADPH by LC-MS/MS analysis; type: ADME, Microsome
[7] = target: T4, Phosphotyrosine protein phosphatase (Mycobacterium tuberculosis) (UniProt A0A045ISB3)
T4 sequence (whole entry): T1 sequence (A0A045ISB3 whole entry)
Description: Time-dependent inhibition of Mycobacterium tuberculosis PTPB expressed in Escherichia coli BL21 (DE3) using p-nitrophenyl phosphate as substrate in presence of Triton-X-100 by UV-vis spectrophotometric method

[8] = target: T4, Phosphotyrosine protein phosphatase (Mycobacterium tuberculosis); remark: listed apart in the source
Description: Time-dependent inhibition of Mycobacterium tuberculosis PTPB expressed in Escherichia coli BL21 (DE3) using p-nitrophenyl phosphate as substrate in absence of Triton-X-100 by UV-vis spectrophotometric method

[9] = tested on: MEF; experiment: Cytotoxicity against MEF at 25 uM measured after 72 hrs by MTT assay; type: cell-based; settings: mouse
[10] = target: Receptor-type tyrosine-protein phosphatase epsilon (Homo sapiens, UniProt P23469)
Sequence of Receptor-type tyrosine-protein phosphatase epsilon (P23469 whole entry): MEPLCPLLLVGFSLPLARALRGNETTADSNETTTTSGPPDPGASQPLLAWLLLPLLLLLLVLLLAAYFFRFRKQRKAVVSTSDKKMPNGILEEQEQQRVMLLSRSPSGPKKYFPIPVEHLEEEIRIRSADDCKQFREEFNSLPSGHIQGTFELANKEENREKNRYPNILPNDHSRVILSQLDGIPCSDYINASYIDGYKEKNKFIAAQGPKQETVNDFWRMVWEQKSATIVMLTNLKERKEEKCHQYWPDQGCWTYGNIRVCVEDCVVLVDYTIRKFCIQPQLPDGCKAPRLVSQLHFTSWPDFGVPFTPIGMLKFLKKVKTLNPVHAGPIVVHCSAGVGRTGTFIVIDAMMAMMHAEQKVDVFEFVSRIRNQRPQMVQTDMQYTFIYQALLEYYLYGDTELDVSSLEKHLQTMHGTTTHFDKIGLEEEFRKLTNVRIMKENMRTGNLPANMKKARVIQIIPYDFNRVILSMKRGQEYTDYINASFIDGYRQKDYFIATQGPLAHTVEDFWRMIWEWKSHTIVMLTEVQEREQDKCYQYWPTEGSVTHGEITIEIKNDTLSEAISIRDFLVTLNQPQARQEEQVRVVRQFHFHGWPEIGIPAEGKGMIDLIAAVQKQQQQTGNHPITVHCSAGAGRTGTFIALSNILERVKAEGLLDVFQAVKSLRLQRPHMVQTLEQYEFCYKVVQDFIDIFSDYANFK

| Compound | IC50 [1] [µM] | IC50 [2] [µM] | IC50 [3] [µM] | IC50 [4] [µM] | also measured |
| --- | --- | --- | --- | --- | --- |
| CN(C)c1cc(O)c(C(=O)O)cc1C#Cc1cccc(NC(=O)C(=O)O)c1 | 0.16 |  |  |  |  |
| COC(=O)c1ccc(C#Cc2ccc(NC(=O)C(=O)O)cc2)cc1O |  | > 50 | > 50 | > 50 |  |
| O=C(O)C(=O)Nc1ccc(C#Cc2ccc(C(F)(F)F)cc2C(F)(F)F)cc1 |  | > 30 | > 30 | > 30 |  |
| O=C(O)C(=O)Nc1ccc(C#Cc2ccc(C(F)(F)F)cc2Br)cc1 |  |  |  |  | Drug uptake [5]: Active; Stability [6]: Stable |
| COC(=O)c1cc(C#Cc2ccc(NC(=O)C(=O)O)cc2)ccc1O | 0.025 | > 50 |  | > 50 |  |
| O=C(O)C(=O)Nc1ccc(/C=C\c2ccccc2)cc1 | 0.77 | > 30 | > 30 |  |  |
| O=C(O)C(=O)Nc1ccc(C#Cc2ccc(O)c(Br)c2)cc1 |  | > 50 |  | > 50 |  |
| NS(=O)(=O)c1ccc(C#Cc2ccc(NC(=O)C(=O)O)cc2)cc1 |  | > 50 | > 50 |  |  |
| C#Cc1ccc(NC(=O)C(=O)O)cc1 |  | > 100 | > 100 |  |  |
| COC(=O)c1cc(C#Cc2cccc(NC(=O)C(=O)O)c2)c(N(C)C)cc1O |  | > 50 | > 50 | > 50 |  |
| CC(C)(C)c1ccc(C#Cc2ccc(NC(=O)C(=O)O)cc2)cc1 | 0.026 | > 50 | > 50 | > 50 |  |
| CC(C)(C)OC(=O)NCC#Cc1ccc(NC(=O)C(=O)O)cc1 |  | > 100 |  |  |  |
| COC(=O)c1cc(C#Cc2ccc(NC(=O)C(=O)O)cc2)c(N(C)C)cc1O | 0.03 | > 50 | > 50 | > 50 |  |
| O=C(O)C(=O)Nc1cccc(C#Cc2ccccc2)c1 |  | > 100 |  |  |  |
| O=C(O)C(=O)Nc1ccc(C#Cc2cccc(C(F)(F)F)c2)cc1 |  |  | > 50 | > 50 |  |
| O=C(O)C(=O)Nc1ccc(CCc2ccccc2)cc1 | 1.27 | > 30 | > 30 |  |  |

| Compound | IC50 [1] [µM] | IC50 [2] [µM] | IC50 [3] [µM] | IC50 [4] [µM] | also measured |
| --- | --- | --- | --- | --- | --- |
| O=C(O)C(=O)Nc1ccc(C#Cc2cc(C(F)(F)F)cc(C(F)(F)F)c2)cc1 | 0.06 | > 50 | > 50 | > 50 | TDI [7]: Active; TDI [8]: Active |
| N#Cc1ccc(C#Cc2ccc(NC(=O)C(=O)O)cc2)cc1 |  | > 50 | > 50 | > 50 |  |
| O=C(O)C(=O)Nc1ccc(C#Cc2ccc(OC(F)(F)F)cc2)cc1 |  | > 50 | > 50 | > 50 |  |
| O=C(O)C(=O)Nc1ccccc1 |  | > 100 | > 100 |  |  |
| O=C(O)C(=O)Nc1ccc(/C=C\c2ccc(C(F)(F)F)cc2)cc1 | 0.684 | > 30 | > 30 |  |  |
| O=C(O)C(=O)Nc1ccc(C#Cc2ccc(C(F)(F)F)cc2Cl)cc1 |  | > 30 | > 30 | > 30 | Drug uptake [5]: Active; Stability [6]: Stable; Activity [9]: Non-Toxic |
| O=C(O)C(=O)Nc1ccc(C#Cc2ccc(O)cc2)cc1 |  | > 50 | > 50 | > 50 |  |
| O=C(O)C(=O)Nc1cnc2ccccc2c1 | > 10 |  |  |  |  |
| CN(C)c1cc(O)c(C(=O)O)cc1C#Cc1ccc(NC(=O)C(=O)O)cc1 | 0.09 | > 100 |  |  |  |
| O=C(O)C(=O)Nc1ccc(C#Cc2ccc(C(F)(F)F)cc2F)cc1 |  | > 30 | > 30 | > 30 | Drug uptake [5]: Active; Stability [6]: Stable |
| CC(C)(C)OC(=O)Nc1ccc(C#Cc2ccc(NC(=O)C(=O)O)cc2)cc1 |  | > 50 | > 50 | > 50 | Activity [9]: Non-Toxic |
| O=C(O)C(=O)Nc1ccc(C#Cc2ccc(C(F)(F)F)cc2)cc1 |  | > 50 | > 50 | > 50 | Drug uptake [5]: Active; IC50 [10]: > 30 µM; Stability [6]: Stable |
| O=C(O)C(=O)Nc1ccc(C#Cc2ccc3ccccc3c2)cc1 |  | > 50 | > 50 | > 50 |  |
| O=C(O)C(=O)Nc1ccc(CCc2ccc(C(F)(F)F)cc2)cc1 | 0.197 | > 30 | > 30 |  |  |
| O=C(O)C(=O)Nc1ccc(C#Cc2ccccc2)cc1 | 0.257 | > 100 | > 100 | > 100 |  |
